Values quoted from earlier work as cited in PMC8747035, “Design, Synthesis, and Biological Evaluation of 5,6,7,8-Tetrahydrobenzo[4,5]thieno[2,3-d]pyrimidines as Microtubule Targeting Agents” (Molecules, 2022).

Tests used:
HeLa WTβIII cells = details: read-out: IC50 ± SD in HeLa WTβ3; cited from earlier work
Bovine brain tubulin = details: read-out: Inhibition of Tubulin Assembly IC50 ± SD; cited from earlier work
HeLa cells = details: read-out: IC50 ± SD in HeLa; cited from earlier work
MDA-MB-435 cells = details: SRB assay, antiproliferative; read-out: IC50 ± SD in MDA-435 Cells; cited from earlier work
tubulin = details: compound at 5 μM; cited from earlier work
SK-OV-3 cells = details: read-out: IC50 ± SD in SK-OV-3 Cells; cited from earlier work
A-10 cells = details: read-out: EC50 for Microtubule Depolymerization in A-10 Cells; cited from earlier work
SK-OV-3 MDR1-M6/6 cells = details: read-out: IC50 ± SD in SK-OV-3 MDR1-M6/6 Cells; cited from earlier work

SMILES	IC50 (HeLa WTβIII cells)	IC50 (Bovine brain tubulin)	IC50 (HeLa cells)	IC50 (MDA-MB-435 cells)	Inhibition of Colchicine Binding (% inhibition ± SD) (tubulin)	IC50 (SK-OV-3 cells)	EC50 (A-10 cells)	IC50 (SK-OV-3 MDR1-M6/6 cells)
COc1ccc(N(C)c2nc(N)nc3[nH]c4ccccc4c23)cc1 [Compound 1]	0.0214 ± 0.0035 µM	1.4 ± 0.007 µM	0.0213 ± 0.0022 µM	0.0147 ± 0.0015 µM	84 ± 0.50%	0.0276 ± 0.0018 µM	0.13 µM	–
CSc1ccc(N(C)c2nc(N)nc3[nH]c4ccccc4c23)cc1 [Compound 2]	0.0784 ± 0.004 µM	2.3 ± 0.3 µM	0.118 ± 0.013 µM	0.0891 ± 0.01 µM	67.0 ± 5.0%	0.156 ± 0.016 µM	1.1 µM	0.16 ± 0.015 µM
COc1ccc(N(C)c2ncnc3[nH]c4ccccc4c23)cc1 [Compound 3]	0.0995 ± 0.012 µM	2.3 ± 0.4 µM	0.142 ± 0.0081 µM	0.13 ± 0.0078 µM	62.0 ± 4.0%	0.173 ± 0.0086 µM	1.2 µM	0.224 ± 0.021 µM
